Data on eight molecules can be found in patent US6492137B1, “Response element compositions and assays employing same” (The Salk Institute for Biological Studies, priority 1989, dated 2002).

Data set [1] concerns the target T1, RARα (Homo sapiens, UniProt P10276).
T1 sequence (P10276 1-462): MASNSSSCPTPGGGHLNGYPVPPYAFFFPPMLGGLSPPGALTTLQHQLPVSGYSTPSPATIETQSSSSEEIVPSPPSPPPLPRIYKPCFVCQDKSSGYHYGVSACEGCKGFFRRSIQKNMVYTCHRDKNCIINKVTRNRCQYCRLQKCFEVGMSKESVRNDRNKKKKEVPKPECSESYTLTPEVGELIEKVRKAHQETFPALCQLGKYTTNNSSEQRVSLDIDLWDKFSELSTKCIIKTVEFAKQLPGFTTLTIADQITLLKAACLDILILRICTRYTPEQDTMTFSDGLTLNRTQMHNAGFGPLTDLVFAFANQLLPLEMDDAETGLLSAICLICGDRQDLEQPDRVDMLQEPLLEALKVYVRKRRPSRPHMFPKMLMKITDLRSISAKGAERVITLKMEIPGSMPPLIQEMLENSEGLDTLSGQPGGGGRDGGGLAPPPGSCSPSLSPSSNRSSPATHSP
Briefly: Gel retardation DNA-binding assay with RARα-expressing COS cell extracts. Set-up: expressed in transfected cells; host or cells: COS cells (whole-cell extract). The conditions noted are these: for competition for RARα binding to 32P-labeled βRARE: unlabeled competitor oligonucleotide, COS cell extracts. On the procedure:
(§1) For DNA binding assays, COS cells were cultured in DMEM with 10% calf bovine serum and transfected by the calcium phosphate method with 20 μg of the pCMX receptor expression plasmid for 6 hours followed by a glycerol shock. After incubating the transfected COS cells for another 48 hours, the cells were harvested to prepare extracts for the DNA binding assay, carried out as described by Damm et al., Nature 339: 593-597 (1989). The extracts were made in 20 mM HEPES (pH 7.4), 0.4 M KCl, 2 mM DTT and 20% glycerol. A similar method was employed to prepare a whole cell extract from F9 stem cells. For the binding, 5 μg (COS) or 10 μg (F9) of proteins was incubated on ice for 20 minutes, first in 20 mM HEPES, 80 mM KCl, 1 mM DTT, 0.1% NP40, 2.5 μg of poly dI/dC, and 10% glycerol (cold competitor oligonucleotides, when included, were added during this pre-incubation period). Then 40 fmole of ^32P-labeled oligonucleotide probe (1-2×10^5 cpm, prepared by filling-in reaction using Klenow polymerase in the presence of α-^32P-dCTP) was added to the reaction mixture, followed by incubation at room temperature for 30 minutes. The receptor-DNA complexes were resolved by electrophoresis through 5% polyacrylamide gel containing 5% glycerol at 6 V/cm at room temperature.
Oligonucleotides listed in FIG. 3 were used as a probe to test specific DNA-binding of the RARα and TRβ in a gel retardation assay. On the βRARE, a faint background binding activity was detected in the mock transfected COS cell extract. […] In each case the result obtained from in vivo transactivation and in vitro DNA binding are consistent.
Using the mobility shift assay, the DNA-binding capacity of extracts from COS cells expressing TRβ and RARα to these sequences was also tested. […] This pattern is consistent with that of the in vivo activation (FIG. 4). A reciprocal pattern was obtained when the same oligonucleotides were used to compete RARα binding to the ^32P-labeled βRARE. […] This provides a striking example of the role of half-site spacing in generating a functional response element.

In data set [2] the test system is F9 teratocarcinoma stem cells. Put plainly: CAT reporter transfection into RA responsive F9 teratocarcinoma stem cells. The note with it: RA 1 μM, 24 hours; no transfected receptor. The class given is cell-based, mouse. Here is the method: (§2) For cotransfection assays, a monkey kidney cell line CV-1 was kept in Dulbecco's modified Eagle's medium (DMEM) supplemented with 10% charcoal-resin double split calf bovine serum. Transfections were performed via calcium-phosphate precipitation method as described by Umesono, et al. in Cell 57: 1139-1146 (1989), with 0.5 μg of a pRS receptor expression plasmid, 1.0 μg of a reporter CAT plasmid, 5 μg of pRAS-βGAL [Umesono, et al., Cell 57: 1139-1146 (1989)] as an internal control, and 8.5 μg of carrier plasmid pUC19. The cells were transfected for 8 hours; after washing the DNA precipitates, the cells were then incubated for an additional 36 hours with or without the ligand (T3, 100 nM; RA, 1 μM; 1,25-(OH)2 vitamin D3, 100 nM). Cell extracts were prepared for βGAL and CAT assays, as described by Umesono, et al., supra. Transfection of F9 teratocarcinoma cells was carried out employing a similar method except the cells were incubated for 12 hours in the presence of the DNA precipitates, and the RA was added at 1 μM for another 24 hours before harvesting the cells. 2, 5, and 4 μg of the reporter, pRAS-βGAL, and pUC19 were used, respectively.
Similarly, when the same set of reporters as in FIG. 4 were transfected into F9 cells, only MHC-R (5-nucleotide spacer) and TREp are potent RAREs. In contrast, its RARE antecedents (MHC-N, MHC+1, MHC-T) are inert.

Data set [3] addresses T2, TRβ (Homo sapiens, UniProt P10828).
T2 sequence (P10828 1-461): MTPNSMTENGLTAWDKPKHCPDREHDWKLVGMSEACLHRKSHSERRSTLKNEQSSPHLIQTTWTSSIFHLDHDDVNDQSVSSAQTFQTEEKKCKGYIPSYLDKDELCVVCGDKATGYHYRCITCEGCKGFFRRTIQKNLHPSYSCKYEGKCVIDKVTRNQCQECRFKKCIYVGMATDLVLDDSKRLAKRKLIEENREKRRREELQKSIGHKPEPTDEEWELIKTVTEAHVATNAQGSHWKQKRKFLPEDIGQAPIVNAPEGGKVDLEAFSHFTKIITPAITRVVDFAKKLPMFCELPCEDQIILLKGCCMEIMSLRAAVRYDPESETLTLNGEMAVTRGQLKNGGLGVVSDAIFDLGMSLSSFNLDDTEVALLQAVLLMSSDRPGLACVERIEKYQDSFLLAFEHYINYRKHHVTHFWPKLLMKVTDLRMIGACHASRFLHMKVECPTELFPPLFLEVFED
Put plainly: Gel retardation DNA-binding assay with TRβ-expressing COS cell extracts. More on the design: expressed in transfected cells; host or cells: COS cells (whole-cell extract). The note with it: unlabeled competitor oligonucleotide; COS cells expressing TRβ. Here is the method:
as §1
Oligonucleotides listed in FIG. 3 were used as a probe to test specific DNA-binding of the RARα and TRβ in a gel retardation assay.
Using the mobility shift assay, the DNA-binding capacity of extracts from COS cells expressing TRβ and RARα to these sequences was also tested.

The target in data set [4] is T3, Thyroid hormone receptor beta (TRβ), in CV-1 cells (Homo sapiens, UniProt P10828 P10828:1-461).
T3 sequence: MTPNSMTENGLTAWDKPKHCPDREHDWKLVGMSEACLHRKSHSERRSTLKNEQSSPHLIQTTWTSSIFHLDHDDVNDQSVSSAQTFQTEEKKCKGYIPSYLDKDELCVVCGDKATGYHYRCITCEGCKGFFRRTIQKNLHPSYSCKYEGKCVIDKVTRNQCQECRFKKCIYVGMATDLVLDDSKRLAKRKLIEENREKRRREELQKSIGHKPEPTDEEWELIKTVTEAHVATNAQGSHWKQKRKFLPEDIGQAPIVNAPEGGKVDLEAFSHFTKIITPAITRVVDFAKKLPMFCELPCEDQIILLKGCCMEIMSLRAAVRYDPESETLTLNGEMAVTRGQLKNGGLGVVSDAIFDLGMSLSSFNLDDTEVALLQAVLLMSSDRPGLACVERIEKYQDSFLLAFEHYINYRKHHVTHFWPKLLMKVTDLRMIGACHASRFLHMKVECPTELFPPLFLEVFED
Briefly: cell_activity; T3 100 nM, CV-1. The conditions noted are these: tags: pRShTRβ, 5'-agct overhangs. Here is the method: as §2, with “1139–1146” for “1139-1146”, “(T_3,” for “(T3,”, “1,25-(OH)_2” for “1,25-(OH)2”, “D_3,” for “D3,”
(§3) Starting from the MHC-TRE (MHC-N), a set of oligonucleotides (see FIG. 4a) were designed to introduce variations in the half-site spacing (MCH+1), the half-site sequence (MHC-T), or both (MHC-R). A single copy of these oligonucleotides was placed in the basal reporter construct ΔSV-CAT (designated by "(−)" in FIG. 4b), giving rise to a set of CAT reporter plasmids together with one encoding TREp. Parallel cotransfections with expression plasmids for TRβ or RARα were performed in CV-1 cells along with the ΔSV-CAT reporter containing a single copy of the variant HRE. After addition of hormone (RA, 1 μM; T_3, 100 nM), the cell extracts were assayed for the CAT activity by […] the β-galactosidase activity produced by cotransfected pRAS-βGAL. In the figure, numbers in the columns indicate the level of induction of CAT activity by the hormone.

Data set [5] deals with T4, Retinoic acid receptor alpha (RARα), in CV-1 cells (Homo sapiens, UniProt P10276 P10276:1-462).
T4 sequence: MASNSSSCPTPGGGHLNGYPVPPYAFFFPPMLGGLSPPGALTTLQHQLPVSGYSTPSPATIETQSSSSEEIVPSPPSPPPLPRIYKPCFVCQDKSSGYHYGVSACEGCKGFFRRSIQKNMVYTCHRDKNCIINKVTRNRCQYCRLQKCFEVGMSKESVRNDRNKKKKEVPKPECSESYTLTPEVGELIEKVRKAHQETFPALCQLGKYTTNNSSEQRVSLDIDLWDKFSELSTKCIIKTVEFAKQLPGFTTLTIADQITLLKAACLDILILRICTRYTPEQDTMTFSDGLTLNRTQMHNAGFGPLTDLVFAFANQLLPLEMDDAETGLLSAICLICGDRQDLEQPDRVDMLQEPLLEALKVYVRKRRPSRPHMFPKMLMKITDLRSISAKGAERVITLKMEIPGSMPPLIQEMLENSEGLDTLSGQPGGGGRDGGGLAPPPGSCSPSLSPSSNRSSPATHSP
Put plainly: cell_activity; RA 1 µM, CV-1. The conditions noted are these: tags: RSV or pRS expression vector; 5'-agct overhangs. On the procedure:
as §2, with “1139–1146” for “1139-1146”, “(T_3,” for “(T3,”, “1,25-(OH)_2” for “1,25-(OH)2”, “D_3,” for “D3,”
as §3

With “DR-5: perfect tandem repeat of AGGTCA hexamers separated by 5 nucleotides (SEQ ID NO:29) (AGCTTCAGGTCACCAGGAGGTCAGAGAGCT; DNA, backbone not given here; double-stranded DNA response element with agct overhangs, cloned into reporter)”, in data set [1] (gel retardation, RARα COS cell extract), the “RARα binding to labeled oligonucleotide probe” value is given as “specific protein-DNA complex”. The “function as RARE in F9 cells” value in data set [2] is “functional RARE”.

For the molecule “MHC-R: MHC-T with half-site spacing increased by one nucleotide (SEQ ID NO:24) (AGCTGGAGGTGAACAGGAGGTCAGCAAGCT; DNA, backbone not given here; double-stranded response element with agct overhangs, cloned into reporter plasmid)”, the “competition for TRβ binding (mobility shift assay)” value in data set [3] was “poor competitors”. The “competition for RARα binding to 32P-labeled βRARE” value in data set [1] is recorded as “effective competitors”. Moreover, the “function as RARE in F9 cells” value in data set [2] is “potent RAREs”.

Turning to “MHC-T: MHC-N with the AGGACA half-site corrected to AGGTCA (SEQ ID NO:23) (AGCTGGAGGTGACAGGAGGTCAGCAAGCT; DNA, backbone not given here; double-stranded response element with agct overhangs, cloned into reporter plasmid)”, the “competition for TRβ binding (mobility shift assay)” value in data set [3] is reported as “efficient competition”. The “competition for RARα binding to 32P-labeled βRARE” value in data set [1] is “fails to compete efficiently”. For the same molecule, the “function as RARE in F9 cells” value in data set [2] is on record as “inert”.

B1: TREp (dsDNA)
DNA 1: AGCTTCAGGTCATGACCTGAGAGCT
DNA 2: AGCTCTCAGGTCATGACCTGAAGCT
For B1, the activity in data set [4] was 14 fold induction; in data set [5], 9 fold induction.

B2: MHC-T (dsDNA)
DNA 1: AGCTGGAGGTGACAGGAGGTCAGCAAGCT
DNA 2: AGCTTGCTGACCTCCTGTCACCTCCAGCT
B2: the activity in data set [4] worked out at 15 fold induction; in data set [5], 2.6 fold induction.

B3: MHC-N (dsDNA)
DNA 1: AGCTGGAGGTGACAGGAGGACAGCAAGCT
DNA 2: AGCTTGCTGTCCTCCTGTCACCTCCAGCT
Molecule B3 returned an activity in data set [4] (label: 32P) of 10 fold induction.

B4: MHC-R (dsDNA)
DNA 1: AGCTGGAGGTGAACAGGAGGTCAGCAAGCT
DNA 2: AGCTTGCTGACCTCCTGTTCACCTCCAGCT
In data set [5], B4 registered an activity of 7.4 fold induction.

B5: MHC+1 (dsDNA)
DNA 1: AGCTGGAGGTGAACAGGAGGACAGCAAGCT
DNA 2: AGCTTGCTGTCCTCCTGTTCACCTCCAGCT
Take B5: the activity in data set [4] was less than 2 fold induction; in data set [5], 4 fold induction.
